From patent US20090258069A1, “Delivery of LFA-1 antagonists to the gastrointestinal system” (priority 2008, published 2009)

How the values were obtained:
healthy adults = test: Phase 1 clinical trial of Compound 12 Ophthalmic Solution, safety and tolerability; type: in vivo, human
Source text: The objectives of the trial were to measure safety and tolerability, and pharmacokinetics in tear and plasma. The dosing schedule (OU; Oculus Uterque (each eye or both eyes)) was divided into 3 periods, each separated by a 72-hour wash out interval: once/day×1 day (drug one eye; placebo fellow eye), twice/day×10 days, and thrice/day×10 days, 14-day observation. Slit lamp examination of the eye, BCVA (Best Corrected Visual Acuity), STTs (Schirmer Tear Test), TBUT (Tear Break-Up Time), IOP (Intraocular pressure) were assessed at screening and the beginning and end of each period. For each cohort, masked safety data was reviewed by a Safety Committee prior to allowing dose escalation of the next cohort. A total of 2856 doses (102 drops/subject) were administered over 1148 total subject study days (41 study days/subject) in 56 eyes. All subjects in all cohorts completed the study, and no study drug doses were missed.

[1] = Pilot mini-pig dermal study; type: in vivo; conditions: minipig, plasma, topical, 10 mg/cm^2 of 1% formulation over approximately 50 cm^2; all groups; below LLOQ; read-out: Plasma levels
Source text: (§1) One pig/dose formulation was used. In-life PK analysis was completed.

mini-pigs = test: Pilot mini-pig dermal study; type: in vivo; conditions: DMSO, gel, ointment, lotion at 1%; TID 7 days, 10 mg/cm^2 on about 50 cm^2
Source text: as §1

[2] = Plasma PK after a single topical ocular instillation (dogs and rabbits)
rabbits = test: 13-week ocular toxicity study in rabbits with 4-week recovery (with TK); conditions: (3%)
[3] = in vivo, topical or ocular, 1.05 mg

## CS(=O)(=O)c1cccc(C[C@H](NC(=O)c2c(Cl)cc3c(c2Cl)CCN(C(=O)c2ccc4ccoc4c2)C3)C(=O)O)c1 [Compound 12]
Healthy adults; 0.1%, 0.3%, 1% and 5% dose strengths, any dose regimen
  deaths, discontinuations, serious or severe AEs considered related to drug: No deaths, discontinuations, serious or severe ocular or non-ocular AEs
Healthy adults; dose strengths up to 5% TID
  overall safety and tolerability, topical ocular instillation: safe and well-tolerated
Healthy adults; human, in vivo
  localized ocular irritation or infection: no evidence of localized ocular irritation or infection
Healthy adults; throughout the trial
  Blood pressure, heart rate, respiratory rate, temperature, body weight, and EKG results: within normal ranges
  Total lymphocyte count, CD3, CD4, and CD8 cell counts: within normal ranges with no evidence of lymphocyte or neutrophil suppression
[1]
  concentration at 7 days: < 0.5 ng/mL
mini-pigs
  toxicity, dermal formulations: No toxicity
[2]; [3]
  AUC: 22.9 ± 10.1 ng·h/mL
  Cmax: 38.9 ± 19.7 ng/mL
[2]; topical ocular instillation
  time of decline of plasma concentration to baseline levels: about 4 hours
  time of maximum plasma concentration post-dose: about 0.25 hrs
rabbits
  NOAEL: 1.05 mg/eye/3× per day
